# Measurements from patent publication US10695322B2 (priority 2016, dated 2020).
# “Also recorded” adds a separate entry of the source.
# Legend:
# LdtMt2 [1] = molecular target: T1, LdtMt2 (Mycobacterium tuberculosis, UniProt I6Y9J2); format: binding, M. tuberculosis
# [2] = tested on: LdtMt2 variants Y318F, H336N, H352N and C354S; format: binding, M. tuberculosis
# LdtMt1 = LdtMt1 (Mycobacterium tuberculosis, UniProt O53638); format: binding, M. tuberculosis
# [3] = tested on: mutant LdtMt2 (Y318A, Y318F, H336N, H352A, H352N, C354A, C354S); format: binding, M. tuberculosis
# LdtMt2 [4] = molecular target: T1, LdtMt2; test: biochemical; parameters: species or system M. tuberculosis; conditions: read-out: kinact/Kapp ratio
# T1 sequence (I6Y9J2 56-408 limits assumed): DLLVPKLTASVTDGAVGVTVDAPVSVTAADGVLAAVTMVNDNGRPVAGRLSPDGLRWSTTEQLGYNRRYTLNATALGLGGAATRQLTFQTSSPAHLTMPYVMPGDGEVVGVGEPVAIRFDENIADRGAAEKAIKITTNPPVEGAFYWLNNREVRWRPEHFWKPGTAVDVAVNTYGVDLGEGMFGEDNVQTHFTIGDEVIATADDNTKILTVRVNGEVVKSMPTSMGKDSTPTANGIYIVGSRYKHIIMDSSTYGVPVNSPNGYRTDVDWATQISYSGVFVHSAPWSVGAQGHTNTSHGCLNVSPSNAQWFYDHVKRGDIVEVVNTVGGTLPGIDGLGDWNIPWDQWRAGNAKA
# LdtMt1, sequence (O53638 32-251 limits assumed): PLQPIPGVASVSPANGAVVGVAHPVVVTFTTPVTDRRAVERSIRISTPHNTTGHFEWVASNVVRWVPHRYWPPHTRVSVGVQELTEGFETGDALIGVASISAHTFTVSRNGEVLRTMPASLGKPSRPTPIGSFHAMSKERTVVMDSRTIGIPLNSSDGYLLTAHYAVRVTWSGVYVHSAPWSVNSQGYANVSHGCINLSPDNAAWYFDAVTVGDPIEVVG
Structure (SMILES),reaction and covalent adduct formation (LdtMt2 [1]),binding affinity [2],reaction and covalent adduct formation (LdtMt1),adduct formation [3],kinact/KI (LdtMt2 [4]) [M⁻¹ s⁻¹]
CSC1=C(C(=O)O)N2C(=O)[C@H]([C@@H](C)O)[C@H]2[C@H]1C [T210],reacted and formed covalent adducts,poor binding affinities,reacted and formed covalent adducts,–,–
"COC(=O)CSC1=C(C(=O)[O-])N2C(=O)[C@H]([C@@H](C)O)[C@H]2[C@H]1C.[Na+] [T205, sodium (4R,5S,6S)-6-((R)-1-hydroxyethyl)-3-((2-methoxy-2-oxoethyl)thio)-4-methyl-7-oxo-1-azabicyclo[3.2.0]hept-2-ene-2 carboxylate]",reacted and formed covalent adducts,–,reacted and formed covalent adducts,–,–
C[C@@H](O)[C@H]1C(=O)N2C(C(=O)O)=C(SC3CN(C4=NCCS4)C3)[C@H](C)[C@H]12 [tebipenem],–,either a complete loss of or no appreciable binding affinities,–,same adducts were detected; also recorded: failed to produce any covalent adduct,–
C[C@@H](O)[C@H]1C(=O)N2C(C(=O)[O-])=C(SC3Cn4cnc[n+]4C3)[C@H](C)[C@H]12 (stereo partly drawn) [biapenem],–,–,–,no adducts could be detected,–
CCCOC(=O)CSC1=C(C(=O)O)N2C(=O)[C@H]([C@@H](C)O)[C@H]2[C@H]1C [T206],reacted and formed covalent adducts,–,reacted and formed covalent adducts,–,–
C[C@@H](O)[C@H]1C(=O)N2C(C(=O)O)=C([C@H]3CCCO3)S[C@H]12 [faropenem],–,either a complete loss of or no appreciable binding affinities,–,same adducts were detected; also recorded: failed to produce any covalent adduct,–
C[C@@H](O)[C@H]1C(=O)N2C(C(=O)O)=C(SCC(=O)OC3CCCCC3)[C@H](C)[C@H]12 [T208],reacted and formed covalent adducts,–,reacted and formed covalent adducts,–,9330
